Results taken from ChEMBL document CHEMBL1201862, “PubChem BioAssay data set” (2004).
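Interpolation was linear, between the two tested concentrations surrounding the appropriate level; five concentrations were tested over 48 hours in 96-well plates. Abbreviation: GI50, concentration required for 50% inhibition of growth.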 Calls of active or inactive are those of the source. Rule as the data show it: active = GI50 up to about 1.1 µM and inactive = higher.

Legend:
Assay in all cases: NCI-60 cell line screen, 48 h
A498 = tested on: A498
A549 = tested on: A549
CCRF-CEM = tested on: CCRF-CEM
HCT-15 = tested on: HCT-15
HL-60 = tested on: HL-60
MOLT-4 = tested on: MOLT-4
NCI-H226 = tested on: NCI-H226
OVCAR-3 = tested on: OVCAR-3
SF-268 = tested on: SF-268
SF-295 = tested on: SF-295
SNB-75 = tested on: SNB-75
SR = tested on: SR
U-251 = tested on: U-251
UACC-62 = tested on: UACC-62
SK-MEL-28 = tested on: SK-MEL-28

Row | SMILES | GI50 (A498) | GI50 (A549) | GI50 (CCRF-CEM) | GI50 (HCT-15) | GI50 (HL-60) | GI50 (MOLT-4) | GI50 (NCI-H226) | GI50 (OVCAR-3) | GI50 (SF-268) | GI50 (SF-295) | GI50 (SNB-75) | GI50 (SR) | GI50 (U-251) | GI50 (UACC-62) | GI50 (SK-MEL-28)
1 | O=C(O)c1ccc([I+]c2ccccc2)cc1 | > 100 µM (inactive) | > 100 µM (inactive) | > 100 µM (inactive) | > 100 µM | > 100 µM (inactive) | > 100 µM (inactive) | > 100 µM (inactive) | > 100 µM (inactive) | > 100 µM (inactive) | > 100 µM (inactive) | > 100 µM (inactive) | > 100 µM (inactive) | > 100 µM (inactive) | > 100 µM (inactive) | –
2 | COc1ccc(C[C@@H]2Cc3cc(OC)c(OC)cc3CN2C)cc1 | > 100 µM (inactive) | > 100 µM (inactive) | > 100 µM (inactive) | > 100 µM | – | > 100 µM (inactive) | – | > 100 µM (inactive) | > 100 µM (inactive) | 57 µM (inactive) | > 100 µM (inactive) | – | > 100 µM (inactive) | – | > 100 µM (inactive)
3 | O=S(=O)(OI(OI(OS(=O)(=O)C(F)(F)F)c1ccccc1)c1ccccc1)C(F)(F)F | > 100 µM (inactive) | 46.8 µM (inactive) | 13.9 µM (inactive) | > 100 µM | 4.33 µM (inactive) | 20.2 µM (inactive) | 58.6 µM (inactive) | 93.3 µM (inactive) | 31.3 µM (inactive) | 21.7 µM (inactive) | 60.8 µM (inactive) | – | > 100 µM (inactive) | 64.4 µM (inactive) | –
4 | Cc1ccc(C2=CC(=O)c3ccccc3C2=O)n1-c1ccccc1 | – | > 100 µM (inactive) | 23 µM (inactive) | – | 32.8 µM (inactive) | 26.1 µM (inactive) | 7.67 µM (inactive) | 87.1 µM (inactive) | > 100 µM (inactive) | > 100 µM (inactive) | > 100 µM (inactive) | – | 46.7 µM (inactive) | 41.9 µM (inactive) | > 100 µM (inactive)
5 | CN(C)c1ccc2c(NCCCCCCNc3ccnc4cc(N(C)C)ccc34)ccnc2c1 | 35.1 µM (inactive) | > 100 µM (inactive) | 12.7 µM (inactive) | > 100 µM | 6.7 µM (inactive) | 6 µM (inactive) | – | 13.7 µM (inactive) | 28 µM (inactive) | 10.7 µM (inactive) | – | 7.73 µM (inactive) | 5.32 µM (inactive) | > 100 µM (inactive) | 14.3 µM (inactive)
6 | COC(=O)/C(C#N)=C1\CCC(C(=O)OC)N1C (centres undefined) | > 100 µM (inactive) | > 100 µM (inactive) | > 100 µM (inactive) | > 100 µM | > 100 µM (inactive) | > 100 µM (inactive) | – | > 100 µM (inactive) | > 100 µM (inactive) | > 100 µM (inactive) | > 100 µM (inactive) | > 100 µM (inactive) | > 100 µM (inactive) | > 100 µM (inactive) | > 100 µM (inactive)
7 | CC(/C(=N/NC(=O)C(N)=O)c1c(Cl)ccc(Cl)c1O)C1(O)C(=O)Nc2ccccc21 (centres undefined) | 17.8 µM (inactive) | 50.2 µM (inactive) | 31.8 µM (inactive) | 34.1 µM | 26 µM (inactive) | – | 29.3 µM (inactive) | 28.6 µM (inactive) | > 100 µM (inactive) | > 100 µM (inactive) | 28.6 µM (inactive) | – | 50.1 µM (inactive) | 49.1 µM (inactive) | > 100 µM (inactive)
8 | O=c1c2cc(Br)ccc2nc(-c2ccccc2Cl)n1NCC1(O)OCC(O)C(O)C1O (centres undefined) | > 100 µM (inactive) | > 100 µM (inactive) | 46.7 µM (inactive) | > 100 µM | 33.6 µM (inactive) | 57.1 µM (inactive) | 0.434 µM (active) | 76.2 µM (inactive) | > 100 µM (inactive) | > 100 µM (inactive) | > 100 µM (inactive) | 35.6 µM (inactive) | > 100 µM (inactive) | > 100 µM (inactive) | > 100 µM (inactive)
9 | Cc1cccc(N2C(=O)C(=O)C(c3nc4ccccc4s3)/C(=N/NC(=S)NN)C2=O)c1C (centres undefined) | > 100 µM (inactive) | – | – | > 100 µM | – | 90.6 µM (inactive) | > 100 µM (inactive) | > 100 µM (inactive) | > 100 µM (inactive) | > 100 µM (inactive) | > 100 µM (inactive) | – | > 100 µM (inactive) | > 100 µM (inactive) | > 100 µM (inactive)
10 | COc1c(C(=O)c2ccc([N+](=O)[O-])cc2)cc(C(C)(C)C)cc1C(C)(C)C | 55.8 µM (inactive) | 31 µM (inactive) | 26.7 µM (inactive) | 32 µM | 13.9 µM (inactive) | 16.4 µM (inactive) | – | – | 34.4 µM (inactive) | 39.1 µM (inactive) | 74.5 µM (inactive) | 17.1 µM (inactive) | 19.1 µM (inactive) | 16.7 µM (inactive) | 22.8 µM (inactive)
11 | CCCCC1(C)C=C/C(=C2/C(=O)O/C(=C\C(=O)O)C2=O)O1 (centres undefined) | > 100 µM (inactive) | > 100 µM (inactive) | > 100 µM (inactive) | > 100 µM | > 100 µM (inactive) | > 100 µM (inactive) | > 100 µM (inactive) | > 100 µM (inactive) | – | > 100 µM (inactive) | > 100 µM (inactive) | > 100 µM (inactive) | > 100 µM (inactive) | > 100 µM (inactive) | > 100 µM (inactive)
12 | Cc1cccc(C)c1CO | – | > 100 µM (inactive) | > 100 µM (inactive) | > 100 µM | > 100 µM (inactive) | > 100 µM (inactive) | > 100 µM (inactive) | > 100 µM (inactive) | > 100 µM (inactive) | > 100 µM (inactive) | > 100 µM (inactive) | > 100 µM (inactive) | > 100 µM (inactive) | > 100 µM (inactive) | –
13 | OCc1c[te]c(-c2ccccc2)c1 | 92.3 µM (inactive) | 63.2 µM (inactive) | 17.5 µM (inactive) | 20.2 µM | 12.6 µM (inactive) | 38.8 µM (inactive) | 24.9 µM (inactive) | 15.5 µM (inactive) | – | 2.25 µM (inactive) | 44.5 µM (inactive) | – | 34.6 µM (inactive) | 31.3 µM (inactive) | 63.1 µM (inactive)
14 | C(=N\Nc1ccccc1)/c1nc2ccccc2nc1/C=N/Nc1ccccc1 | 16.6 µM (inactive) | 14.3 µM (inactive) | 23.6 µM (inactive) | 4.39 µM | 31 µM (inactive) | 13.2 µM (inactive) | 18 µM (inactive) | 16.6 µM (inactive) | 13.1 µM (inactive) | 16.2 µM (inactive) | 12.2 µM (inactive) | 19.9 µM (inactive) | – | 12.9 µM (inactive) | 17.5 µM (inactive)
15 | COc1cc(C2C(C(=O)Nc3ccccc3)=C(C)NC(C)=C2C(=O)Nc2ccccc2)ccc1O | > 100 µM (inactive) | 40.6 µM (inactive) | – | 43.5 µM | 22.4 µM (inactive) | 27.4 µM (inactive) | 49.3 µM (inactive) | 23 µM (inactive) | > 100 µM (inactive) | 49.9 µM (inactive) | 13.6 µM (inactive) | 25.9 µM (inactive) | 48.9 µM (inactive) | – | 46.7 µM (inactive)
16 | O=C1C=CC(=O)c2cc(Sc3ccccc3)c(=O)c(Sc3ccccc3)cc21 | > 100 µM (inactive) | 56.5 µM (inactive) | 17.3 µM (inactive) | 50.6 µM | 10.6 µM (inactive) | 24 µM (inactive) | > 100 µM (inactive) | 50.9 µM (inactive) | 42 µM (inactive) | > 100 µM (inactive) | 85.3 µM (inactive) | 25.5 µM (inactive) | 46.3 µM (inactive) | 24.8 µM (inactive) | 95.1 µM (inactive)
17 | CCCCCC/C(CC(=O)CCC(=O)NCCc1ccccc1)=N\Nc1ccc([N+](=O)[O-])cc1[N+](=O)[O-] | 79.8 µM (inactive) | 87.7 µM (inactive) | 22.1 µM (inactive) | 69.3 µM | 27.9 µM (inactive) | 21.4 µM (inactive) | 60.4 µM (inactive) | 51.3 µM (inactive) | 71.6 µM (inactive) | > 100 µM (inactive) | – | 20.6 µM (inactive) | 97.1 µM (inactive) | 30.5 µM (inactive) | > 100 µM (inactive)
18 | COC(=O)C1=C(O)C(O)=C(C(=O)OC)CC1 | > 100 µM (inactive) | 37 µM (inactive) | > 100 µM (inactive) | > 100 µM | > 100 µM (inactive) | > 100 µM (inactive) | > 100 µM (inactive) | > 100 µM (inactive) | > 100 µM (inactive) | > 100 µM (inactive) | > 100 µM (inactive) | > 100 µM (inactive) | > 100 µM (inactive) | > 100 µM (inactive) | > 100 µM (inactive)
19 | CN(C)c1ccc(-c2cc(O)c3cc4c(cc3n2)OCO4)cc1 | > 100 µM (inactive) | > 100 µM (inactive) | > 100 µM (inactive) | > 100 µM | > 100 µM (inactive) | > 100 µM (inactive) | > 100 µM (inactive) | > 100 µM (inactive) | > 100 µM (inactive) | > 100 µM (inactive) | 4.33 µM (inactive) | > 100 µM (inactive) | > 100 µM (inactive) | > 100 µM (inactive) | > 100 µM (inactive)
20 | C=CCC1(CC)C(=O)NC(=O)NC1=O [ETALLOBARBITAL] | – | > 100 µM (inactive) | > 100 µM (inactive) | > 100 µM | > 100 µM (inactive) | > 100 µM (inactive) | > 100 µM (inactive) | > 100 µM (inactive) | > 100 µM (inactive) | > 10 µM (inactive) | > 100 µM (inactive) | > 100 µM (inactive) | > 100 µM (inactive) | > 100 µM (inactive) | > 100 µM (inactive)
